# From patent US20220088199A1, “METHOD FOR PROTECTING GLYCEROL ALKYL ETHERS FROM OXIDATION” (SACHEM, INC., priority 2016, published 2022)
# Tests used:
# [1] = Stability testing of SASKINE50 blends at 50° C., analysed by GC (Example 2); conditions: for loss of SASKINE50 (3-[(2-ethylhexyl)oxy]-1,2-propanediol) assay on storage: one month, 725 ppm antioxidant in 99.6% pure SASKINE50, FIG. 3
# Procedure: The blend is analyzed via gas chromatography (GC) prior to stability testing. Following the analysis result, the blend is placed under atmospheric pressure and under an inert gas into individual sample bottles as not to disturb the testing conditions during sampling. The test conditions are 50° C. for one month. […] These test conditions are considered to simulate a shelf-life of approximately one year at room temperature.
# The samples are dissolved in isopropyl alcohol at a concentration of 10% for the GC analysis. The following GC conditions are used:
# Column: • Material: fused silica WCOT • Length: 30 m • Internal diameter: 0.32 mm • Stationary phase: DB1701 • Film thickness: 1 μm • Gas regulation: Carrier gas: hydrogen • Make-up gas: helium • Temperatures: Detector: 300° C. • Injector: 275° C. • Start temperature: 115° C. • Warm up speed 1: 8° C./minute • End temperature: 210° C. • Warm up speed 2: 15° C./minute • End temperature: 275° C.
# Detection: Type detector: FID
# [2] = system: microbial strain (bacteria, yeasts, molds); experiment: Minimum inhibitory concentration (MIC) determination; assay type: cell-based; conditions: FIG. 7; compared to plain material and Sensiva
# Procedure: As discussed in the background, the purpose of the glyceryl ether compounds such as SASKINE50™ and SASKINE80™ is as a preservative and antimicrobial, especially in cosmetics and pharmaceutical preparations. To test the SASKINE50™ and SASKINE80™, minimum inhibitory concentrations are determined for SASKINE50™ alone, SASKINE50™ with naringenin, SASKINE80™ alone, and SASKINE80™ with naringenin, and, for comparison, Sensiva® SC 50, which contains 3-[(2-ethylhexyl)oxy]-1,2-propanediol and synthetic alpha-tocopherol, which is commercially available from Schülke & Mayr Benelux B.V., 2032 HA-Haarlem, Netherlands. The determination of the minimal inhibitory concentration (MIC) is carried out according to the standard procedure described below.
# The purpose of the MIC study is to find a minimum concentration of the test item which will enable to inhibit in vitro the growth of a microbial strain. The MIC characterizes the bacteriostatic or fungistatic effect of a product.
# In the MIC test, the product is diluted according to a geometric progression of reason 2 over a range of at least 5 dilutions starting from the maximum concentration to be tested specified by the customer. In each tube of the dilution range, a cultured medium double concentered is included with the strains to be tested. […]
# [3] = Stability testing of SASKINE80 blend at 50° C., analysed by GC (Example 3); assay type: physicochemical
# Procedure: In this example, SACHEM's SASKINE80™ is used as basis for the stability testing of […] within the scope of the present invention, i.e., naringenin. A pre-defined blend containing SASKINE80™ and this anti-oxidant compound in accordance with the present invention are prepared, the blend containing 725 ppm of the naringenin in 99.6% pure SASKINE80™ (3-[(n-octyl)oxy]-1,2-propanediol). […] The test conditions are 50° C. for two weeks and four weeks.
# [4] = Stability testing at room temperature: formation of formaldehyde and peroxides (Example 1); assay type: physicochemical; conditions: zero time
# Description: The thus-prepared compositions are subjected to stability testing, under which formation of formaldehyde and peroxides and determined as indicators of stability, in which higher amounts of formaldehyde and/or peroxides are deemed to show lower stability of the mixture. […] This sample is obtained commercially from Schulke GmbH. The tests for all samples determine the formaldehyde and peroxide contents of the test sample when stored at room temperature (RT), for periods of 0, 2, 4, 6, 8, 10 and 12 months. The 0 month sample is the freshly prepared composition.
# [5] = system: human reconstructed epidermis (SkinEthic model); experiment: In vitro skin irritation study, SkinEthic model, OECD 439; assay type: cell-based; conditions: pure product applied 42 minutes, 42 hours incubation; MTT viability and IL1-α; FIG. 8
# Procedure: As noted herein, the inventive compositions are intended for use in cosmetic and pharmaceutical compositions. One important criteria for such products is that there be no skin irritation, when the compositions are applied to the skin of the person using the cosmetic or pharmaceutical composition. To test the compositions of the present invention, a non-animal test is conducted, which is an in vitro skin irritation study of the compositions on human reconstructed epidermis known as the SkinEthic model, OECD 439. […] After the pure product has been applied to the epidermis for 42 minutes and they have been incubated for 42 hours post-treatment, cell viability is determined by measuring mitochondrial succinate dehydrogenase activity in living cells. […] A spectrophotometer is used to read the results after the crystals have been dissolved. The measured absorbances are proportional to the number of living cells. In addition, release of inflammation (IL1-α) mediators is measured by colorimeter if cell viability is over 50%. […] Cytotoxicity: absorbance is measured three times at 540 nm. The results are expressed as a viability percentage compared to a negative control: […]
# IL1-α titration: IL1-α concentrations in the culture media are evaluated using the instructions on the titration kit and are expressed as pg/ml. […]
"loss of SASKINE50 (3-[(2-ethylhexyl)oxy]-1,2-propanediol) assay on storage [1]",SMILES,further results
performed less well,C[C@@H]1O[C@@H](O[C@H]2[C@H](Oc3cc(O)c4c(c3)O[C@H](c3ccc(O)cc3)CC4=O)O[C@H](CO)[C@@H](O)[C@@H]2O)[C@H](O)[C@H](O)[C@H]1O [naringin hydrate],
,"CCCCCCCCOCC(O)CO (centres unmarked) [SASKINE80™, 3-[(n-octyl)oxy]-1,2-propanediol]","minimum inhibitory concentration (anti-microbial growth) [2]: even better performance; increase in low boiling compounds ([3]; two and four weeks, FIG. 5b): notable increase; SASKINE80 assay decrease ([3]; two weeks and four weeks, FIG. 5a): about 0.40%"
significant loss,"CCCCC(CC)COCC(O)CO (centres unmarked) [SASKINE50™, 3-[(2-ethylhexyl)oxy]-1,2-propanediol]","peroxide present ([4]; Example 1, FIG. 1): measurable, non-zero amount; formaldehyde present ([4]; Example 1, FIG. 2): measurable, non-zero amount; increase in volatile degradation products (low boiling compounds) ([1]; 2 weeks and 4 weeks, 725 ppm antioxidant in SASKINE50, FIG. 4): significant amount of breakdown products; skin irritation classification [5]: irritant of category 1 or 2"
almost no loss,O.O=c1c(O)c(-c2ccc(O)cc2O)oc2cc(O)cc(O)c12 [norinhydrate],
almost no loss,COc1cc(O)c2c(=O)c(O)c(-c3ccc(O)c(O)c3)oc2c1 [rhamnetin],
almost no loss,COc1ccc(-c2cc(=O)c3c(O)cc(O)cc3o2)cc1O [diosmetin],

SMILES,"loss of SASKINE50 (3-[(2-ethylhexyl)oxy]-1,2-propanediol) assay on storage [1]",further results
O=C1C[C@@H](c2ccc(O)cc2)Oc2cc(O)cc(O)c21 [naringenin],almost no loss,
O=c1c(O)c(-c2ccc(O)c(O)c2)oc2cc(O)cc(O)c12 [quercetin],almost no loss,
